Test results as given in patent US7938981B2, “Deicing and heat transfer fluid compositions” (Bioamber S.A.S., priority 2009, dated 2011).
Where two headings read alike, the source gives them in different places.

Legend:
[1] = Biological Oxygen Demand (BOD5), 5 day test; conditions: 50% (wt.) concentration in water, ratio BOD5 to COD
Description: The oxygen demand of a compound during chemical oxidation and biological degradation is an indication of the persistence of the chemical in the environment. […] BOD is the amount of oxygen required for biological oxidation by bacteria growing under aerobic conditions. The ratio of BOD to COD can be used to assess whether a compound is readily biodegradable. When BOD5 is expressed as a percentage of COD, a BOD5 that is <1% of COD indicates a relatively nonbiodegradable compound and >10% of COD indicates a relatively degradable compound (the subscript “5” denotes a 5 day test).

[2] = 25% (wt.) concentration in water; cited from earlier work
[3] = 50% (wt.) concentration in water, in five days, value with literature reference 17, cited from earlier work

In the case of OCCO [Ethylene Glycol], the “Biodegradability (BOD5/COD)%” value [1] is listed as 61% and the Freezing point [2] is listed as −12.0^20 °C.
In the case of CC(O)CO (stereo not drawn) [Propylene Glycol], the “Biodegradability (BOD5/COD)%” value [1] is given as 59% and the Freezing point [2] is given as −11.0^21 °C.
In the case of O=C([O-])CCC(=O)[O-].[K+].[K+] [Test No. 1, potassium succinate], the “Biodegradability (BOD5/COD)%” value ([1]; listed as Potassium Succinate) is listed as 68%, the “Biodegradability (BOD5/COD)%” value ([1]; listed as succinate) is listed as “highly biodegradable” and the Freezing point [2] is listed as −12.5^14 °C.
In the case of CC(=O)[O-].[K+] [Test No. 2, potassium acetate], the “Biodegradability (BOD5/COD)%” value [1] is listed as “highly biodegradable” and the Freezing point [2] is listed as −18.0^14 °C.
In the case of O=C[O-].[K+] [Test No. 3, potassium formate], the Freezing point [2] is listed as −15.0^17 °C, the “Biodegradability (BOD5/COD)%” value ([3]; listed as Potassium formate) is listed as 100%^17 and the “Biodegradability (BOD5/COD)%” value ([3]; listed as potassium formate) is listed as 100%.
